Patent US10351559B2, “Maleate salts of a B-RAF kinase inhibitor, crystalline forms, methods of preparation, and uses therefore” (BeiGene, Ltd., priority 2015, dated 2019)
Structures can show the parent of a compound that is named as a salt. Where two headings read alike, the source gives them in different places.

Tests used:
[1] = pharmacokinetic comparison of sesqui-maleate and free base, oral; type: in vivo, Beagle dogs; settings: dogs
Text: Drugs and reagents: Crystalline Form A* of Compound 1 Sesqui-Maleate with particle sizes of D90=4.1 um, D10=1.5 um, D50=2.4 um after micronization. The material content (purity) was not less than 98.0%.
Experiment animals: Beagle dogs, male and female.
Pharmaceutical preparation: Weigh the appropriate amount of each substance and disperse in 0.5% sodium carboxymethyl cellulose (for the free base of Compound 1) or 0.5% methyl cellulose solution (for Compound 1 Sesqui-Maleate). Prepare a suspension at the desired concentration of Compound 1. All the doses and concentrations of Compound 1 were calculated with free base in this study.
Administration and sample collection: The dosing solutions will be freshly prepared prior to dose administration. The actual body weights and actual volume injected will be recorded accordingly. The dogs were fasted overnight and were allowed to intake food four hours after dosing. Each suspension was administrated orally to dogs at a dose ranged from 0.5 to 15 mg/kg. Blood samples (˜1.0 mL) will be collected at pre-dose and at different times up to 36 hours postdosing via cephalic vein plexus. Whole blood will be processed by centrifugation and plasma samples will be collected and kept at freezer prior to analysis. Plasma samples were processed by protein precipitation. Concentrations of Compound 1 in the plasma samples were determined using a validated liquid chromatography-tandem mass spectrometry (LC-MS/MS) method. The plasma concentration-time data were analyzed using a non-compartmental model using Pharsight WinNonlin.

[2] = target: CYP2C19 (Homo sapiens, UniProt P33261); test: CYP inhibition; type: in vitro ADME
[3] = target: T1, RET (Homo sapiens, UniProt P07949); test: HTRF KinEASE-TK kinase assay; type: biochemical
T1 construct: purchased Life Technologies
T1 sequence (P07949 29-1114): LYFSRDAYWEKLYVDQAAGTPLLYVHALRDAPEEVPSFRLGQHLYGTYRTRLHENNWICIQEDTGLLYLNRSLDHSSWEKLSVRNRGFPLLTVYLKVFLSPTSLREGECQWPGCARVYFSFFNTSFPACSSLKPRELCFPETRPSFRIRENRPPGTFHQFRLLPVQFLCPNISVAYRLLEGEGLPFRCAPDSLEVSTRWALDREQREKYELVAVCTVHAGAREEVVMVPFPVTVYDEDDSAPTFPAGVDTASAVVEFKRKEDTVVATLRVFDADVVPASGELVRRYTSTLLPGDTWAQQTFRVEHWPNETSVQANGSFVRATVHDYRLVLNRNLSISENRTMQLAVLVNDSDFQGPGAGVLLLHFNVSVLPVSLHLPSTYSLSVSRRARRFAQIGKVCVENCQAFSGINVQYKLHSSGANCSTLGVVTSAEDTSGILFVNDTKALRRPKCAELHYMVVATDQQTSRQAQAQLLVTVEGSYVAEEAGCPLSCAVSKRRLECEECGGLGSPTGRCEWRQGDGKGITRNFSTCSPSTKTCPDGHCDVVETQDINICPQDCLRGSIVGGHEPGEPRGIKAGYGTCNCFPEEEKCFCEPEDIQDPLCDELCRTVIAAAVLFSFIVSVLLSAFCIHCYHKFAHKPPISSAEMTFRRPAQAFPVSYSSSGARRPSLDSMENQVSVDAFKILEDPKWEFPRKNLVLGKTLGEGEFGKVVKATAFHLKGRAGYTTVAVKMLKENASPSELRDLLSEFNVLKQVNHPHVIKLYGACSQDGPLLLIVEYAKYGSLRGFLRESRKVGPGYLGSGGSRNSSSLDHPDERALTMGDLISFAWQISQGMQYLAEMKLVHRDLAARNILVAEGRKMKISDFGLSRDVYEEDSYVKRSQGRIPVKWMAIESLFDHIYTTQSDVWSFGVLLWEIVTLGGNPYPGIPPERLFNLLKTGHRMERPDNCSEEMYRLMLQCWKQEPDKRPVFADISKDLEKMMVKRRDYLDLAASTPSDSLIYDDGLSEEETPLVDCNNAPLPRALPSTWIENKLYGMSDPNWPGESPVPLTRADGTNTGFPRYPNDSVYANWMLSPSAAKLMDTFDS
Protocol: (§1) Crystalline Form A* of Compound 1 Sesqui-Maleate was tested against recombinant EGFR/EPHA2/BTK (from Carna Biosciences), ITK/TEC/SRC/PDGFR-beta/TXK/FLT3/VEGFR2/RET (from Life Technologies), and HER2 (aa676-1255, recombinant protein purified from insect expression system) in HTRF KinEASE-TK assay from Cisbio Bioassays according to the manufacturer's instructions. The assay was carried out in a reaction mixture containing kinases, ATP at KM concentration, biotinylated peptide substrate (61TK0BLC, Cisbio Bioassays) and Crystalline Form A* of Compound 1 Sesqui-Maleate. The kinase was incubated with Crystalline Form A* of Compound 1 Sesqui-Maleate at RT for 1 hr or 2 hr (for EGFR) and the reaction was initiated by the addition of ATP and substrate. After reaction, stop/detection solution was added according to the manufacture's instruction. The stop/detection solution contained Eu+ cryptate conjugated antiphosphotyrosine antibody (61T66kLB, CisBio Bioassays) and Streptavidin-XL665 (610SAXLB, CisBio Bioassays) in buffer containing 25 mM Tris pH7.4, 400 mM KF, 50 mM EDTA, 0.01% BSA, 0.01% Triton X-100. The TR-FRET signals (ratio of fluorescence emission at 665 nm over emission at 620 nm with excitation at 337 nm wavelength) were recorded on a PHERAstar FS plate reader (BMG Labtech) after 1 hr incubation. Phosphorylation of biotinylated peptide substrate led to the binding of both Eu+ cryptate conjugated antiphosphotyrosine antibody and streptaviding-XL665 to the biotinylated peptide. The close proximity of the donor (Eu+ cryptate) and acceptor (XL665) fluorophore led to a high degree of fluorescence resonance energy transfer from the donor fluorophore (at 620 nm) to the acceptor fluorophore (at 665 nm). The IC50 for Crystalline Form A* of Compound 1 Sesqui-Maleate was derived from fitting the dose-response % inhibition data to the four-parameter logistic model by Graphpad Prism software.

[4] = target: T2, ITK (Homo sapiens, UniProt Q08881); test: HTRF KinEASE-TK kinase assay; type: biochemical
T2 construct: purchased Life Technologies
T2 sequence (Q08881 whole entry): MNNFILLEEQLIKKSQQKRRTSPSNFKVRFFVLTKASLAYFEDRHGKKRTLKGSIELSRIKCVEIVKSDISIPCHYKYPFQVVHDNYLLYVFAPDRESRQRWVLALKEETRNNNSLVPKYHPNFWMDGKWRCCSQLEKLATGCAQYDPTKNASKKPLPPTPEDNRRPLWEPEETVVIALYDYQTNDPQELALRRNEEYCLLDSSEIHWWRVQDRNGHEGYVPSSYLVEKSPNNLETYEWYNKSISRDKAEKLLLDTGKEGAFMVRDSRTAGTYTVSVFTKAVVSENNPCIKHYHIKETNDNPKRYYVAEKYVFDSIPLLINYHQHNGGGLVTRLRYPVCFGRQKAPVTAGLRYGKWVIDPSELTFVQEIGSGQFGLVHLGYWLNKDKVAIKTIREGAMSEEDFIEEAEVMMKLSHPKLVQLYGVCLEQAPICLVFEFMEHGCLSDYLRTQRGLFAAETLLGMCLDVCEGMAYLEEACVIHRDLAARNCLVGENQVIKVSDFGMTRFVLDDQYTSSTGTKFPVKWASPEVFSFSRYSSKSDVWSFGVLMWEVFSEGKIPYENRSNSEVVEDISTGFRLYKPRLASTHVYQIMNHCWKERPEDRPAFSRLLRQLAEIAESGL
Protocol: as §1

[5] = target: T3, PDGFR-beta (Homo sapiens, UniProt P09619); test: HTRF KinEASE-TK kinase assay; type: biochemical
T3 construct: purchased Life Technologies
T3 sequence (P09619 33-1106): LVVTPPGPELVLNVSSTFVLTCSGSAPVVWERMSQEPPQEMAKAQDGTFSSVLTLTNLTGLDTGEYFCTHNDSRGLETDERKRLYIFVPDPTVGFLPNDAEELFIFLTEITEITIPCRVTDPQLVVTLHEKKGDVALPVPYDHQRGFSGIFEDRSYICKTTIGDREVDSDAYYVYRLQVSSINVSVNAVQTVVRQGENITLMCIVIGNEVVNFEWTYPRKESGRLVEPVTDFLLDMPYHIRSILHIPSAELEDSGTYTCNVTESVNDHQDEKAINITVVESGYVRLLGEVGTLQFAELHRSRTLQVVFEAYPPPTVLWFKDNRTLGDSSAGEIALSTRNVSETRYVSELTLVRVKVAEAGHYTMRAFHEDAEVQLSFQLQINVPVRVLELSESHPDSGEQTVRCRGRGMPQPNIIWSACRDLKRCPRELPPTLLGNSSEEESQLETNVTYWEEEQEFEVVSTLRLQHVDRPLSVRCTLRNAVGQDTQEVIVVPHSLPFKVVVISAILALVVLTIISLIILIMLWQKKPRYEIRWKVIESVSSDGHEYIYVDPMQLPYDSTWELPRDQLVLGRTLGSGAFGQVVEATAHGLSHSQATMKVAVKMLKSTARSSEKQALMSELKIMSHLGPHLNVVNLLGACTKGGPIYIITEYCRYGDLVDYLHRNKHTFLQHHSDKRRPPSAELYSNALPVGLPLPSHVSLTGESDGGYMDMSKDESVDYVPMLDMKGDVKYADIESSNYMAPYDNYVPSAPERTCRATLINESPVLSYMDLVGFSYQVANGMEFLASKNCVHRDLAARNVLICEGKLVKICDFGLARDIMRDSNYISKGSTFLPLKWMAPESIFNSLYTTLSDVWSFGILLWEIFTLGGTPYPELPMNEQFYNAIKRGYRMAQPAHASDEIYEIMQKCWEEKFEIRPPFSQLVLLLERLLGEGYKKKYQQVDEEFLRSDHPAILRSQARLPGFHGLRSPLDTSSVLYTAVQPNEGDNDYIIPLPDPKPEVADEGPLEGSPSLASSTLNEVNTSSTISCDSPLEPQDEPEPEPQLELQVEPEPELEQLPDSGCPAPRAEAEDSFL
Protocol: as §1

[6] = target: T4, FLT3 (Homo sapiens, UniProt P36888); test: HTRF KinEASE-TK kinase assay; type: biochemical
T4 construct: purchased Life Technologies
T4 sequence (P36888 27-993): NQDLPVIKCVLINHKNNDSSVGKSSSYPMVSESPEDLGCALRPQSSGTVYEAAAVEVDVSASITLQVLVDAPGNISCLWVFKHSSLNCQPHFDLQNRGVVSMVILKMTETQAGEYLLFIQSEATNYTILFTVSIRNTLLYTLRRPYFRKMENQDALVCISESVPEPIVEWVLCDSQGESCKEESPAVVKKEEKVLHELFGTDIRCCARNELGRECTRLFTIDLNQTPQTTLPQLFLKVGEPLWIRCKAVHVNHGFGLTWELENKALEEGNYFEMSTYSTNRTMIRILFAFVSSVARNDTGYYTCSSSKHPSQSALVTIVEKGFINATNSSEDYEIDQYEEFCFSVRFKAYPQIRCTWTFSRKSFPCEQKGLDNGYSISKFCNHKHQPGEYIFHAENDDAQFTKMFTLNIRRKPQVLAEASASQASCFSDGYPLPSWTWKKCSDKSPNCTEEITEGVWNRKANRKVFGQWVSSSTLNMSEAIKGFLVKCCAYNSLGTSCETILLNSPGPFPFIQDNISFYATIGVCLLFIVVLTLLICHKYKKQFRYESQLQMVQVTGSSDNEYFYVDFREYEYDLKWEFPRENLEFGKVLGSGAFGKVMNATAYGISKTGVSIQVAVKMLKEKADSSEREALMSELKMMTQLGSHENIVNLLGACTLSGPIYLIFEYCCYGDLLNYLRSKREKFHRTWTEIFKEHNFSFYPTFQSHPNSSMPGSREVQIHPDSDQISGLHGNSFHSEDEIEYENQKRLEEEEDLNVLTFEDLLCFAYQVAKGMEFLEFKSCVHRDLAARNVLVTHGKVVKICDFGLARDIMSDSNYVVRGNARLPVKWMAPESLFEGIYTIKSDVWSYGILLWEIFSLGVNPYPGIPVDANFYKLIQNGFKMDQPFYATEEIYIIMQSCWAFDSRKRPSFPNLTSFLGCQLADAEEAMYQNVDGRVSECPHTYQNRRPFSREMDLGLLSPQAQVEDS
Protocol: as §1

[7] = target: T5, EPHA2 (Homo sapiens, UniProt P29317); test: HTRF KinEASE-TK kinase assay; type: biochemical
T5 construct: purchased Carna Biosciences
T5 sequence (P29317 24-976): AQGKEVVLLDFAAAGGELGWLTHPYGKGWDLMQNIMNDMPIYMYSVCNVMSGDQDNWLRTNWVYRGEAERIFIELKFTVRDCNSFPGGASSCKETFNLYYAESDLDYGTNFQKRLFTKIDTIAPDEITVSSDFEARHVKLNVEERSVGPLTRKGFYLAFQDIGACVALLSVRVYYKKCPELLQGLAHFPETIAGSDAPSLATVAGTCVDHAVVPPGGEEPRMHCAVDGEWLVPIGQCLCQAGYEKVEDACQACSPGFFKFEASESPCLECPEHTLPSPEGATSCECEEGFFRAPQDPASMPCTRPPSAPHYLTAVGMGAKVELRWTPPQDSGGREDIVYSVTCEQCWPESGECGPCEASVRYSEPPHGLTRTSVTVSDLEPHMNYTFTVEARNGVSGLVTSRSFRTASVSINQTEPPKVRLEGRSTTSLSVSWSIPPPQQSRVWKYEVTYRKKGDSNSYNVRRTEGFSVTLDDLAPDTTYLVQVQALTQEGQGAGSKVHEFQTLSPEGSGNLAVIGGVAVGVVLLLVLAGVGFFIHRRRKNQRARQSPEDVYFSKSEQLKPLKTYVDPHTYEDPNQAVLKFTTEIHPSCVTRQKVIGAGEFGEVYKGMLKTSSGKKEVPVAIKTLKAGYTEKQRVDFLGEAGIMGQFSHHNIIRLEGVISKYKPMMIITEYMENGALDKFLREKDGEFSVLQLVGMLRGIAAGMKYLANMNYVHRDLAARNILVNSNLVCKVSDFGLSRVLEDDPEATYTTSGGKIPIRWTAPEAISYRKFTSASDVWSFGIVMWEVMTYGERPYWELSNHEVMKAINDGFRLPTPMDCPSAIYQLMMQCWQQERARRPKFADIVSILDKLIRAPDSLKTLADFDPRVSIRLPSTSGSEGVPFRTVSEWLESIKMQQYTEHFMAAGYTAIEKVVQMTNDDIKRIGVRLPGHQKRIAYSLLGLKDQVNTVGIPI
Protocol: as §1

[8] = target: CYP2C8 (Homo sapiens, UniProt P10632); test: CYP inhibition; type: in vitro ADME
[9] = tested on: EGFR phosphorylation in HCC827 cells; test: cellular phospho-EGFR TR-FRET assay; type: cell-based; settings: Homo sapiens; EGFR mutant HCC827 lung cancer cells, 1 h treatment
Protocol: (§2) A375, Sk-Mel-28, HT29, Colo205, A431, and HCC827 cell lines were purchased from American Type Culture Collection. All the cell lines used in the cellular assays were cultured in the designated medium supplemented with 10% fetal bovine serum (FBS, Thermo Scientific), 100 units/mL penicillin (Gibco), 0.1 mg/mL streptomycin (Gibco) and in a humidified 37° C. environment with 5% CO2. Cell lines were reinstated from frozen stocks laid down within three passages from the original cells purchased and passaged no more than 30 times.
(§3) Cellular phospho-ERK and phospho-EGFR were measured using a TR-FRET-based method. Cells were seeded at 3×10^4 per well of a 96-well plate and left to attach for 16 hours. Growth medium was then replaced with 100 μL of medium containing no serum. Cells were then treated with a 10-point titration of compound. After 1 h of compound treatment, 50 μL of lysis buffer (Cisbio) were added to each well. Plates were then incubated at room temperature with shaking for 30 min. A total of 16 μL of cell lysate from each well of a 96-well plate was transferred to a 384-well small volume white plate. […] FRET signals were measured using a PHERAstar FS reader (BMG Labtech). IC50 values for ERK or EGFR phosphorylation was determined using GraphPad Prism software.

[10] = tested on: EGFR phosphorylation in A431 cells; test: cellular phospho-EGFR TR-FRET assay; type: cell-based; settings: Homo sapiens, A-431; EGFR overexpressing A431 cells, 1 h treatment
Protocol: as §2, §3

[11] = oral dose 1 mg/kg (free base), listed as Sesqui-Maleate (Micronized Crystalline Form A*), sesqui-maleate salt, 1 mg/kg

O=C1CCc2c(Oc3ccc4c(c3)[C@@H]3[C@H](O4)[C@H]3c3nc4ccc(C(F)(F)F)cc4[nH]3)ccnc2N1 [5-(((1R,1aS,6bR)-1-(6-(trifluoromethyl)-1H-benzo[d]imidazol-2-yl)-1a,6b-dihydro-1H-cyclopropa[b]benzofuran-5-yl)oxy)-3,4-dihydro-1,8-naphthyridin-2(1H)-one sesqui-maleate salt]
Cmax ([1]; both sexes, beagle, dog, plasma, po, 0.5 mg/kg, oral dose 0.5 mg/kg, read-out: Cmax): 342 ng/mL
Cmax ([1]; both sexes, beagle, dog, plasma, po, 1.5 mg/kg, oral dose 1.5 mg/kg, read-out: Cmax): 861 ng/mL
Cmax ([1]; both sexes, beagle, dog, plasma, po, 4.5 mg/kg, oral dose 4.5 mg/kg, read-out: Cmax): 2880 ng/mL
Cmax ([1]; both sexes, beagle, dog, plasma, po, 15 mg/kg, oral dose 15 mg/kg, read-out: Cmax): 5310 ng/mL
AUC0-inf relative to the free base form ([1]; oral): 2-3 times
Cmax relative to the free base form ([1]; oral): 2-3 times
Dose-Normalized AUC0-inf ([1]; oral dose 0.5 mg/kg): 4178 ng·kg·h/mL/mg
Cmax [1, 11]: 607 ng/mL
Dose-Normalized AUC0-inf [1, 11]: 2960 ng·kg·h/mL/mg
Dose-Normalized AUC0-inf ([1]; oral dose 1.5 mg/kg): 3726 ng·kg·h/mL/mg
Dose-Normalized AUC0-inf ([1]; oral dose 4.5 mg/kg): 4390 ng·kg·h/mL/mg
Dose-Normalized AUC0-inf ([1]; oral dose 15 mg/kg): 2841 ng·kg·h/mL/mg
IC50 [2]: 1960 nM
enzyme inhibition [3]: potently inhibits
IC50 ([3]; ATP at KM): 18 nM
enzyme inhibition [4]: no inhibition
IC50 ([4]; ATP at KM): > 10000 nM
enzyme inhibition [5]: potently inhibits
IC50 ([5]; ATP at KM): 17 nM
enzyme inhibition [6]: potently inhibits
IC50 ([6]; ATP at KM): 25 nM
enzyme inhibition [7]: potently inhibits
IC50 ([7]; ATP at KM): 61 nM
IC50 [8]: 1030 nM
IC50 [9]: 161 nM
IC50 [10]: 385 nM
